Source: the supplement of paper PMC10307832

compound: Cc1cnc(CNC(=O)c2c(=O)c3ccc(N4CCCN(C)CC4)nc3n3c2sc2ccccc23)cn1 [CX-5461] + Cc1nc(Nc2ncc(C(=O)Nc3c(C)cccc3Cl)s2)cc(N2CCN(CCO)CC2)n1 [Dasatinib] (partner 0.075 µM); test: relative viability (nuclei count vs DMSO), 5 days (fraction); higher = more cells survive; conditions: first compound 0.01 µM
How it was run: (§1)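 Dosing by pin tool came one day after lung cancer cell lines were seeded in 1536-well plates, using either one drug or a fixed anchor-drug dose plus five library-drug doses (not always all listed) in √10 steps. After 5 days, nuclei were counted on 4× images. Relative viability is treated-well nuclei count divided by vehicle-well nuclei count, and values are medians of duplicate plates.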

Row | Cell Line | relative viability
1 | NCI-H727 | 0.324
2 | NCI-H1650 | 0.355
3 | NCI-H1993 | 0.657
4 | SK-LU-1 | 0.178
5 | NCI-H838 | 0.283
6 | LCLC-103H | 0.527
7 | NCI-H520 | 0.164
8 | NCI-H2126 | 0.54
9 | EMC-BAC-2 | 0.335
10 | NCI-H2085 | 0.237
11 | HCC-366 | 0.678
12 | NCI-H1666 | 0.786
13 | NCI-H596 | 0.613
14 | NCI-H1395 | 0.402
15 | NCI-H2087 | 0.938
16 | NCI-H2342 | 0.311
17 | LK-2 | 0.258
18 | H3255 | 0.482
19 | COR-L23 | 0.477
20 | COR-L 105 | 0.3
21 | LOU-NH91 | 0.677
22 | ChaGo-K-1 | 0.57
23 | HCC-78 | 0.431
24 | NCI-H1792 | 0.738
25 | NCI-H1563 | 0.461

same assay, conditions: first compound 0.03162 µM

Row | Cell Line | relative viability
26 | NCI-H522 | 1.04
27 | NCI-H1623 | 0.473
28 | NCI-H727 | 0.361
29 | NCI-H1650 | 0.326
30 | NCI-H1993 | 0.588
31 | SK-LU-1 | 0.159
32 | NCI-H838 | 0.292
33 | LCLC-103H | 0.583
34 | NCI-H520 | 0.165
35 | NCI-H2126 | 0.568
36 | EMC-BAC-2 | 0.319
37 | NCI-H2085 | 0.228
38 | HCC-366 | 0.597
39 | NCI-H1666 | 0.802
40 | NCI-H596 | 0.639
41 | NCI-H1395 | 0.414
42 | NCI-H2087 | 0.903
43 | NCI-H2342 | 0.317
44 | LK-2 | 0.229
45 | H3255 | 0.295
46 | COR-L23 | 0.495
47 | COR-L 105 | 0.356
48 | LOU-NH91 | 0.511
49 | ChaGo-K-1 | 0.57
50 | HCC-78 | 0.381
51 | NCI-H1792 | 0.893
52 | NCI-H1563 | 0.426

same assay, conditions: first compound 0.1 µM

Row | Cell Line | relative viability
53 | NCI-H522 | 0.916
54 | NCI-H1623 | 0.521
55 | NCI-H727 | 0.253
56 | NCI-H1650 | 0.195
57 | NCI-H1993 | 0.499
58 | SK-LU-1 | 0.142
59 | NCI-H838 | 0.38
60 | LCLC-103H | 0.384
61 | NCI-H520 | 0.199
62 | NCI-H2126 | 0.562
63 | EMC-BAC-2 | 0.296
64 | NCI-H2085 | 0.257
65 | HCC-366 | 0.627
66 | NCI-H1666 | 0.597
67 | NCI-H596 | 0.596
68 | NCI-H1395 | 0.418
69 | NCI-H2087 | 0.736
70 | NCI-H2342 | 0.308
71 | LK-2 | 0.251
72 | H3255 | 0.34
73 | COR-L23 | 0.438
74 | COR-L 105 | 0.299
75 | LOU-NH91 | 0.602
76 | ChaGo-K-1 | 0.575
77 | HCC-78 | 0.406
78 | NCI-H1792 | 0.825
79 | NCI-H1563 | 0.464

same assay, conditions: first compound 0.3162 µM

Row | Cell Line | relative viability
80 | NCI-H1623 | 0.568
81 | NCI-H727 | 0.377
82 | NCI-H1650 | 0.305
83 | NCI-H1993 | 0.621
84 | NCI-H838 | 0.241
85 | LCLC-103H | 0.609
86 | NCI-H520 | 0.166
87 | NCI-H2126 | 0.672
88 | EMC-BAC-2 | 0.282
89 | NCI-H2085 | 0.229
90 | HCC-366 | 0.68
91 | NCI-H1666 | 0.757
92 | NCI-H596 | 0.623
93 | NCI-H1395 | 0.39
94 | NCI-H2087 | 0.793
95 | NCI-H2342 | 0.335
96 | H3255 | 0.334
97 | COR-L23 | 0.46
98 | COR-L 105 | 0.325
99 | ChaGo-K-1 | 0.469
100 | HCC-78 | 0.421
101 | NCI-H1792 | 0.95
102 | NCI-H1563 | 0.444

same assay, conditions: first compound 1 µM

Row | Cell Line | relative viability
103 | NCI-H522 | 0.742
104 | NCI-H1623 | 0.534
105 | NCI-H727 | 0.31
106 | NCI-H1650 | 0.14
107 | NCI-H1993 | 0.473
108 | SK-LU-1 | 0.102
109 | NCI-H838 | 0.243
110 | LCLC-103H | 0.53
111 | NCI-H520 | 0.203
112 | NCI-H2126 | 0.413
113 | EMC-BAC-2 | 0.155
114 | NCI-H2085 | 0.252
115 | HCC-366 | 0.106
116 | NCI-H1666 | 0.591
117 | NCI-H596 | 0.473
118 | NCI-H1395 | 0.367
119 | NCI-H2087 | 0.554
120 | NCI-H2342 | 0.285
121 | LK-2 | 0.195
122 | H3255 | 0.304
123 | COR-L23 | 0.226
124 | COR-L 105 | 0.255
125 | LOU-NH91 | 0.532
126 | ChaGo-K-1 | 0.253
127 | HCC-78 | 0.322
128 | NCI-H1792 | 0.613
129 | NCI-H1563 | 0.444

compound: Cc1cnc(CNC(=O)c2c(=O)c3ccc(N4CCCN(C)CC4)nc3n3c2sc2ccccc23)cn1 [CX-5461] + O=C(CCCCCCC(=O)Nc1ccccc1)NO [Vorinostat] (partner 1 µM); test: as above; conditions: first compound 0.01 µM
How it was run: as §1

Row | Cell Line | relative viability
130 | NCI-H522 | 1
131 | NCI-H727 | 1.4
132 | NCI-H1650 | 0.619
133 | NCI-H1993 | 1.11
134 | SK-LU-1 | 0.826
135 | NCI-H838 | 0.669
136 | LCLC-103H | 0.784
137 | NCI-H520 | 0.734
138 | NCI-H2126 | 0.725
139 | EMC-BAC-2 | 0.435
140 | NCI-H2085 | 0.854
141 | HCC-366 | 0.441
142 | NCI-H1666 | 0.986
143 | NCI-H596 | 0.608
144 | NCI-H1395 | 0.672
145 | NCI-H2087 | 0.625
146 | NCI-H2342 | 0.686
147 | LK-2 | 0.422
148 | H3255 | 0.767
149 | COR-L23 | 0.612
150 | COR-L 105 | 0.929
151 | IA-LM | 1
152 | LOU-NH91 | 0.985
153 | ChaGo-K-1 | 0.786
154 | HCC-44 | 1.17
155 | NCI-H1648 | 0.526
156 | HCC-78 | 0.405

same assay, conditions: first compound 0.03162 µM

Row | Cell Line | relative viability
157 | NCI-H522 | 1.1
158 | NCI-H727 | 1.2
159 | NCI-H1650 | 0.466
160 | NCI-H1993 | 0.988
161 | SK-LU-1 | 0.721
162 | NCI-H838 | 0.789
163 | LCLC-103H | 0.855
164 | NCI-H520 | 0.681
165 | NCI-H2126 | 0.861
166 | EMC-BAC-2 | 0.138
167 | NCI-H2085 | 0.82
168 | HCC-366 | 0.408
169 | NCI-H1666 | 1.05
170 | NCI-H596 | 0.686
171 | NCI-H1395 | 0.635
172 | NCI-H2087 | 0.709
173 | NCI-H2342 | 0.768
174 | LK-2 | 0.315
175 | H3255 | 0.771
176 | COR-L23 | 0.436
177 | COR-L 105 | 0.872
178 | IA-LM | 0.925
179 | LOU-NH91 | 0.957
180 | ChaGo-K-1 | 0.81
181 | HCC-44 | 1.16
182 | NCI-H1648 | 0.355
183 | HCC-78 | 0.477

same assay, conditions: first compound 0.1 µM

Row | Cell Line | relative viability
184 | NCI-H522 | 0.955
185 | NCI-H727 | 1.28
186 | NCI-H1650 | 0.33
187 | NCI-H1993 | 0.889
188 | SK-LU-1 | 0.777
189 | NCI-H838 | 0.76
190 | LCLC-103H | 0.827
191 | NCI-H520 | 0.661
192 | NCI-H2126 | 0.79
193 | EMC-BAC-2 | 0.269
194 | NCI-H2085 | 0.708
195 | HCC-366 | 0.166
196 | NCI-H1666 | 1.07
197 | NCI-H596 | 0.664
198 | NCI-H1395 | 0.535
199 | NCI-H2087 | 0.754
200 | NCI-H2342 | 0.642
201 | LK-2 | 0.367
202 | H3255 | 0.9
203 | COR-L23 | 0.451
204 | COR-L 105 | 0.728
205 | IA-LM | 1.11
206 | LOU-NH91 | 0.87
207 | ChaGo-K-1 | 0.699
208 | HCC-44 | 1.03
209 | NCI-H1648 | 0.49
210 | HCC-78 | 0.459

same assay, conditions: first compound 0.3162 µM

Row | Cell Line | relative viability
211 | NCI-H727 | 1.03
212 | NCI-H1650 | 0.61
213 | NCI-H1993 | 0.403
214 | SK-LU-1 | 0.777
215 | NCI-H838 | 0.548
216 | LCLC-103H | 0.517
217 | NCI-H520 | 0.642
218 | NCI-H2126 | 0.522
219 | EMC-BAC-2 | 0.203
220 | NCI-H2085 | 0.865
221 | HCC-366 | 0.242
222 | NCI-H1666 | 0.981
223 | NCI-H596 | 0.706
224 | NCI-H1395 | 0.379
225 | NCI-H2087 | 0.696
226 | NCI-H2342 | 0.619
227 | LK-2 | 0.2
228 | COR-L23 | 0.389
229 | COR-L 105 | 0.71
230 | IA-LM | 0.828
231 | LOU-NH91 | 0.49
232 | ChaGo-K-1 | 0.262
233 | HCC-44 | 1.13
234 | NCI-H1648 | 0.495
235 | HCC-78 | 0.402

same assay, conditions: first compound 1 µM

Row | Cell Line | relative viability
236 | NCI-H522 | 0.852
237 | NCI-H727 | 1.05
238 | NCI-H1650 | 0.261
239 | NCI-H1993 | 0.638
240 | SK-LU-1 | 0.538
241 | NCI-H838 | 0.617
242 | LCLC-103H | 0.741
243 | NCI-H520 | 0.291
244 | NCI-H2126 | 0.881
245 | EMC-BAC-2 | 0.201
246 | NCI-H2085 | 0.719
247 | HCC-366 | 0.0455
248 | NCI-H1666 | 0.975
249 | NCI-H596 | 0.306
250 | NCI-H1395 | 0.473
251 | NCI-H2087 | 0.527
252 | NCI-H2342 | 0.776
253 | LK-2 | 0.307
254 | H3255 | 0.734
255 | COR-L23 | 0.218
256 | COR-L 105 | 0.599
257 | IA-LM | 1.01
258 | LOU-NH91 | 0.697
259 | ChaGo-K-1 | 0.513
260 | HCC-44 | 1.03
261 | NCI-H1648 | 0.483
262 | HCC-78 | 0.42
